Test results taken from ChEMBL document CHEMBL4507318, “Data for DCP probe BAY-985” (2021).

Assays:
[1] = molecular target: Tyrosine-protein kinase HCK (Homo sapiens) (UniProt P08631)
[2] = molecular target: LIM domain kinase 1 (Homo sapiens) (UniProt P53667)
[3] = molecular target: TGF-beta receptor type-1 (Homo sapiens) (UniProt P36897)
[4] = molecular target: Mitogen-activated protein kinase 4 (Homo sapiens) (UniProt P31152)
[5] = molecular target: Epithelial discoidin domain-containing receptor 1 (Homo sapiens) (UniProt Q08345)
[6] = molecular target: Serine/threonine-protein kinase PLK4 (Homo sapiens) (UniProt O00444)
[7] = molecular target: Tyrosine-protein kinase Fyn (Homo sapiens) (UniProt P06241)
[8] = molecular target: Mitogen-activated protein kinase 15 (Homo sapiens) (UniProt Q8TD08)
Mitogen-activated protein kinase 15 (Homo sapiens), sequence (Q8TD08 whole entry): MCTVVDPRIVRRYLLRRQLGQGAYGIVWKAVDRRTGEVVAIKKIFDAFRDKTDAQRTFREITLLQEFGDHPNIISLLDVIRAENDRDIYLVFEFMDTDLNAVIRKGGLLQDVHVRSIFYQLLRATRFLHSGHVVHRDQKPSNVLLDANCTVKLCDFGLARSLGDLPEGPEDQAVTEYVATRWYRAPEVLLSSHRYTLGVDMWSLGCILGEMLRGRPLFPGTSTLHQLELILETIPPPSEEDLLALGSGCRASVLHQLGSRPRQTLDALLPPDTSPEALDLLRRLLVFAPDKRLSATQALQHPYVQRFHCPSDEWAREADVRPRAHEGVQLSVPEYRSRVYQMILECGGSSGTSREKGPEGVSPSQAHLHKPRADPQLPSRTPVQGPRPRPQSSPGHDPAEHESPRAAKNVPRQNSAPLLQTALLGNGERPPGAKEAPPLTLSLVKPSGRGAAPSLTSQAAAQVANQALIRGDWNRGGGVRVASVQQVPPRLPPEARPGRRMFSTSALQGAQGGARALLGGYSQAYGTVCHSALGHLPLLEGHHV

[9] = molecular target: Angiopoietin-1 receptor (Homo sapiens) (UniProt Q02763)
[10] = molecular target: Interferon-induced, double-stranded RNA-activated protein kinase (Homo sapiens) (UniProt P19525)
[11] = molecular target: Muscarinic acetylcholine receptor M5 (Homo sapiens) (UniProt P08912); conditions: Compound concentration 10.0 uM
[12] = molecular target: Cyclin-dependent kinase 19 (Homo sapiens) (UniProt Q9BWU1)
Cyclin-dependent kinase 19 (Homo sapiens), sequence (Q9BWU1 whole entry): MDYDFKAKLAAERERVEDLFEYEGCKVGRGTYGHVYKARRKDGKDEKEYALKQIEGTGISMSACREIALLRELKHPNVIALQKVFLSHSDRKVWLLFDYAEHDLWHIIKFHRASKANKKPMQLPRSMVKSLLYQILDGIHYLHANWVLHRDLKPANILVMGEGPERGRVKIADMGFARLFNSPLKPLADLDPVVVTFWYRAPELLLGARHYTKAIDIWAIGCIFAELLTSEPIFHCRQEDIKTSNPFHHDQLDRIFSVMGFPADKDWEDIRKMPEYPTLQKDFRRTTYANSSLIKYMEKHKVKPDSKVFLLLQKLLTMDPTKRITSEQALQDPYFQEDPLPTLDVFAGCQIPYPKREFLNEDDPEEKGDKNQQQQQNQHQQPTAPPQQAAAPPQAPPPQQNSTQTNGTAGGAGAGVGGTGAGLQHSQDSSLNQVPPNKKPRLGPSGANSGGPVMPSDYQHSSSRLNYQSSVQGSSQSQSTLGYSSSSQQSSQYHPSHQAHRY

[13] = molecular target: Tyrosine-protein kinase Lck (Homo sapiens) (UniProt P06239)
[14] = molecular target: Serine/threonine-protein kinase Nek11 (Homo sapiens) (UniProt Q8NG66)
[15] = molecular target: D(4) dopamine receptor (Homo sapiens) (UniProt P21917); conditions: Compound concentration 10.0 uM
[16] = molecular target: Serine/threonine-protein kinase 17B (Homo sapiens) (UniProt O94768)
[17] = tested on: Receptor-type tyrosine-protein kinase FLT3 (Homo sapiens), P36888 [D835V]
[18] = molecular target: Glycogen synthase kinase-3 beta (Homo sapiens) (UniProt P49841)
Glycogen synthase kinase-3 beta (Homo sapiens), sequence (P49841 whole entry, looked up): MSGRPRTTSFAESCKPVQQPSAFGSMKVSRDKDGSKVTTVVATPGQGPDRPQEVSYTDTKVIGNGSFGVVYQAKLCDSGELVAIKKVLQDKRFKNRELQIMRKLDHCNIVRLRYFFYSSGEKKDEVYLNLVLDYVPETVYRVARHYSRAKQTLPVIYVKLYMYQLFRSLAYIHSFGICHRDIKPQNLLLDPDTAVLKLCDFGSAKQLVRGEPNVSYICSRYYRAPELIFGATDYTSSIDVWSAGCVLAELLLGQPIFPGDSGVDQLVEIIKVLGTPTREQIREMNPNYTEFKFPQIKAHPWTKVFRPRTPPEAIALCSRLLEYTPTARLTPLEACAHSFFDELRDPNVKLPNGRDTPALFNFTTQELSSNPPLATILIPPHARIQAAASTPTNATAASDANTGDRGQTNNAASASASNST

[19] = molecular target: Proto-oncogene tyrosine-protein kinase Src (Homo sapiens) (UniProt P12931)
Proto-oncogene tyrosine-protein kinase Src (Homo sapiens), sequence (P12931 2-536 limits assumed): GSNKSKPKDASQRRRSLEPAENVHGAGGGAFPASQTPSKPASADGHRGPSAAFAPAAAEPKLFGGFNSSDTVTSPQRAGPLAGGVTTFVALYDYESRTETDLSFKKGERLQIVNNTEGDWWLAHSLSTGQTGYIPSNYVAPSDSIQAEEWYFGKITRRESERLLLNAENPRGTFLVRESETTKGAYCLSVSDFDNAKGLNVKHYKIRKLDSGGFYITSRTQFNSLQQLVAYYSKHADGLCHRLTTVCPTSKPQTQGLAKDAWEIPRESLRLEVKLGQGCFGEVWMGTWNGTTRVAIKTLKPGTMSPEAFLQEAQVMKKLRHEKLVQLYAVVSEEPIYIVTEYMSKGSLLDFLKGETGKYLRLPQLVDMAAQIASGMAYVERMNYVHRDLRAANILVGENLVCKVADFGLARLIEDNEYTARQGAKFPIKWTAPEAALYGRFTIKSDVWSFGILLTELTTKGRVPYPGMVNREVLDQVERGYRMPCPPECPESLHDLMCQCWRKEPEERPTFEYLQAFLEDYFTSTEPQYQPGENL

[20] = molecular target: 5-hydroxytryptamine receptor 1D (Homo sapiens) (UniProt P28221); conditions: Compound concentration 10.0 uM
[21] = molecular target: MAP/microtubule affinity-regulating kinase 4 (Homo sapiens) (UniProt Q96L34)
[22] = molecular target: Hepatocyte growth factor receptor (Homo sapiens) (UniProt P08581)
[23] = molecular target: Alpha-1A adrenergic receptor (Homo sapiens) (UniProt P35348); conditions: Compound concentration 10.0 uM
Alpha-1A adrenergic receptor (Homo sapiens), sequence (P35348 whole entry): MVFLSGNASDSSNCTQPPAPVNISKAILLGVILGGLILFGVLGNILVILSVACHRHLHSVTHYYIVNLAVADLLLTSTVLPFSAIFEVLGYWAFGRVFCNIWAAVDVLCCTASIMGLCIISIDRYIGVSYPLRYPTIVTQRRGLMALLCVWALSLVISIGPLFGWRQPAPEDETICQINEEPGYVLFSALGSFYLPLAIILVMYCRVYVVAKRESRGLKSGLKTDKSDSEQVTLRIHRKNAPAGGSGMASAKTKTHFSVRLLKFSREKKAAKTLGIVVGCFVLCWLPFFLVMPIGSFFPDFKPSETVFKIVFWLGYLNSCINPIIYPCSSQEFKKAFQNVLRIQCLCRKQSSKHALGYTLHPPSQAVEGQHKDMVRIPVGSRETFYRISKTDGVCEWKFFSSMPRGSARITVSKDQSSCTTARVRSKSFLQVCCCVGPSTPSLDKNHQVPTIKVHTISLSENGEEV

[24] = tested on: Receptor-type tyrosine-protein kinase FLT3 (Homo sapiens), P36888 [UNDEFINED MUTATION]
[25] = molecular target: MAP kinase-activated protein kinase 5 (Homo sapiens) (UniProt Q8IW41)
MAP kinase-activated protein kinase 5 (Homo sapiens), sequence (Q8IW41 whole entry): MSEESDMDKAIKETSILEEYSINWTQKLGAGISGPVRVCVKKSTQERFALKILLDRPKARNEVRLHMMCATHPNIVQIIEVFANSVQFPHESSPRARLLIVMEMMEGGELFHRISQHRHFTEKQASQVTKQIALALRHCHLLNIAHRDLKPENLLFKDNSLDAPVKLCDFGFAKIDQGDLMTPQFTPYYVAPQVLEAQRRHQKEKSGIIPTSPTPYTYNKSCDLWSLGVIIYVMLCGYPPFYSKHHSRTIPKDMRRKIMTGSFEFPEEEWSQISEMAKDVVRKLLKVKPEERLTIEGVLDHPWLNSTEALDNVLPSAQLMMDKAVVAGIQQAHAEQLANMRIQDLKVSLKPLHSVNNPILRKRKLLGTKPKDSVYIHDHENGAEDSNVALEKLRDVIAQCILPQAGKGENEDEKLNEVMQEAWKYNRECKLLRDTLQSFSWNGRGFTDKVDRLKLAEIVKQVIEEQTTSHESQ

[26] = molecular target: Serine/threonine-protein kinase PAK 3 (Homo sapiens) (UniProt O75914)
[27] = molecular target: Testis-specific serine/threonine-protein kinase 3 (Homo sapiens) (UniProt Q96PN8)
Testis-specific serine/threonine-protein kinase 3 (Homo sapiens), sequence (Q96PN8 whole entry): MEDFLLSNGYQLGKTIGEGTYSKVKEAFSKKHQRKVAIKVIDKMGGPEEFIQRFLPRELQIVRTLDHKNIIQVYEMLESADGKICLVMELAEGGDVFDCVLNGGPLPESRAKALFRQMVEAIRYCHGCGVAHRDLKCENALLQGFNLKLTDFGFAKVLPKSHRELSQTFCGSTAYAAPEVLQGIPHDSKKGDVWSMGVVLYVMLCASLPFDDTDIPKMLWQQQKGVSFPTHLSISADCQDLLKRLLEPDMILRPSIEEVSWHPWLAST

[28] = molecular target: Serine/threonine-protein kinase 32C (Homo sapiens) (UniProt Q86UX6)
[29] = molecular target: Mitogen-activated protein kinase kinase kinase 4 (Homo sapiens) (UniProt Q9Y6R4)
[30] = molecular target: Eukaryotic translation initiation factor 2-alpha kinase 1 (Homo sapiens) (UniProt Q9BQI3)
[31] = molecular target: Tyrosine-protein kinase receptor UFO (Homo sapiens) (UniProt P30530)
[32] = molecular target: Tyrosine-protein kinase BTK (Homo sapiens) (UniProt Q06187)
[33] = tested on: Receptor-type tyrosine-protein kinase FLT3 (Homo sapiens), P36888 [UNDEFINED MUTATION]; remark: listed apart in the source
[34] = molecular target: Rhodopsin kinase GRK1 (Homo sapiens) (UniProt Q15835)
[35] = molecular target: D(3) dopamine receptor (Homo sapiens) (UniProt P35462); conditions: Compound concentration 10.0 uM
[36] = molecular target: Cyclin-dependent kinase-like 1 (Homo sapiens) (UniProt Q00532)
[37] = tested on: Epidermal growth factor receptor (Homo sapiens), P00533 [T790M]
[38] = molecular target: Proto-oncogene tyrosine-protein kinase ROS (Homo sapiens) (UniProt P08922)
[39] = tested on: Mast/stem cell growth factor receptor Kit (Homo sapiens), P10721 [D816V]
[40] = molecular target: 5-hydroxytryptamine receptor 1A (Homo sapiens) (UniProt P08908); conditions: Compound concentration 10.0 uM
5-hydroxytryptamine receptor 1A (Homo sapiens), sequence (P08908 whole entry): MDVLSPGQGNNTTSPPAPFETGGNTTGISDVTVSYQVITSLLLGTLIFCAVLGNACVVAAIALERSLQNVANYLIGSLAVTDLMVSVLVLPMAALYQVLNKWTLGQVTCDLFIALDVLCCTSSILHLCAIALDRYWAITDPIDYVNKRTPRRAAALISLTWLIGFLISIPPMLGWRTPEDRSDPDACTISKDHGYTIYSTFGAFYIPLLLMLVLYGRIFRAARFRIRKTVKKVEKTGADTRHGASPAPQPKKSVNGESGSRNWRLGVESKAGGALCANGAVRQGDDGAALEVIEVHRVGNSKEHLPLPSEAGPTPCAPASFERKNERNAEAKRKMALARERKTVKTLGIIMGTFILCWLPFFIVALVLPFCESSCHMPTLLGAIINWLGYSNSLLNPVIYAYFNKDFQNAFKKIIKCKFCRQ

[41] = molecular target: 5'-AMP-activated protein kinase catalytic subunit alpha-2 (Homo sapiens) (UniProt P54646)
[42] = molecular target: Mitogen-activated protein kinase 1 (Homo sapiens) (UniProt P28482)
[43] = molecular target: Serine/threonine-protein kinase Nek4 (Homo sapiens) (UniProt P51957)
[44] = molecular target: Cyclin-dependent kinase 7 (Homo sapiens) (UniProt P50613)
[45] = molecular target: Calcium-dependent protein kinase 1 (Plasmodium falciparum) (UniProt P62344)
[46] = Compound concentration 1000.0 nM
[47] = Compound concentration 100.0 nM

Mitogen-activated protein kinase 4 (Homo sapiens), sequence (P31152 whole entry, the tested form may be a part): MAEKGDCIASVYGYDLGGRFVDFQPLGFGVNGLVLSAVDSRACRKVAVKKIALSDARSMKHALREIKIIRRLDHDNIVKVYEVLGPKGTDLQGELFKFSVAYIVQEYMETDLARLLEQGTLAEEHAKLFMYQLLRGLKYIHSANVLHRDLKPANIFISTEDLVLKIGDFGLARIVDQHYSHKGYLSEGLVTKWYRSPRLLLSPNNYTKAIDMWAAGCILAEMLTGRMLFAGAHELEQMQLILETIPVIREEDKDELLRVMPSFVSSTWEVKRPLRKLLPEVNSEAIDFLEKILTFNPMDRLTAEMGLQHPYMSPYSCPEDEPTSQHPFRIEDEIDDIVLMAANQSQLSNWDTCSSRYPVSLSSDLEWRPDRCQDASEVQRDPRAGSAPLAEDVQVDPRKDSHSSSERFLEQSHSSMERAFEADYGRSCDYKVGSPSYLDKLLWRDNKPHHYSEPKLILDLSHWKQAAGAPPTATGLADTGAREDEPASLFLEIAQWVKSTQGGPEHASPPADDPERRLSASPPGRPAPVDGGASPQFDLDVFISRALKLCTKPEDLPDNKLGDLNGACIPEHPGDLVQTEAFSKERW
LIM domain kinase 1 (Homo sapiens), sequence (P53667 whole entry, looked up, the tested form may be a part): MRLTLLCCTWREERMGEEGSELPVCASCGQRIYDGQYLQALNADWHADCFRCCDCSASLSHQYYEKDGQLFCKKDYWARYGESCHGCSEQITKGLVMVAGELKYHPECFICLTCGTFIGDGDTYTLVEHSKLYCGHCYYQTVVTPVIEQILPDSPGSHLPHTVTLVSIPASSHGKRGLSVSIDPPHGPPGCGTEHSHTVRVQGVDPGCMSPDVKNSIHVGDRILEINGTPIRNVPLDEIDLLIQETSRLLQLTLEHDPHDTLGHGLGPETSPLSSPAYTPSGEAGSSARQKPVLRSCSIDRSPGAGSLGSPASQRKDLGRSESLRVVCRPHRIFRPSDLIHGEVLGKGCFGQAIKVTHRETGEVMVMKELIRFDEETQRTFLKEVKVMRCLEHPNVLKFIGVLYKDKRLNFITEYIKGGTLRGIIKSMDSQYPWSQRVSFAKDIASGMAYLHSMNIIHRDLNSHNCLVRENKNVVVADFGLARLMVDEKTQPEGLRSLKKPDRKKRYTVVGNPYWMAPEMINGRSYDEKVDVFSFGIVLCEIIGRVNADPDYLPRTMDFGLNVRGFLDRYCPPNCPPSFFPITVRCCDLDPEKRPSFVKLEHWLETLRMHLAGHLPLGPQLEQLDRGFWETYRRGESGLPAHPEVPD

## CN(C)c1ncnc(-c2ccc3nc(Nc4cc(CN5CCN(C(=O)CC(F)(F)F)CC5)ccn4)[nH]c3c2)c1Cl [BAY-440]
[1]; [46]
  residual activity: 80%
[2]; [46]
  residual activity: 100%
[3]; [46]
  residual activity: 100%
[4]; [46]
  residual activity: 100%
[5]; [46]
  residual activity: 75%
[6]; [46]
  residual activity: 76%
[7]; [46]
  residual activity: 68%
[8]; [46]
  residual activity: 73%
[9]; [46]
  residual activity: 87%
[10]; [46]
  residual activity: 100%
[11]
  inhibition: 12.4%
[12]; [46]
  residual activity: 75%
[13]; [46]
  residual activity: 100%
[14]; [46]
  residual activity: 55%
[15]
  inhibition: 7.18%
[16]; [46]
  residual activity: 52%
[17]; [46]
  residual activity: 7%
[18]; [46]
  residual activity: 100%
[19]; [46]
  residual activity: 100%
[20]
  inhibition: 19.5%
[21]; [46]
  residual activity: 100%
[22]; [46]
  residual activity: 69%
[23]
  inhibition: 12.8%
[24]; [46]
  residual activity: 86%
[25]; [46]
  residual activity: 96%
[26]; [46]
  residual activity: 81%
[27]; [46]
  residual activity: 62%
[28]; [46]
  residual activity: 100%
[29]; [46]
  residual activity: 100%
[30]; [46]
  residual activity: 54%
[31]; [46]
  residual activity: 57%
[32]; [46]
  residual activity: 80%
[33]; [46]
  residual activity: 15%
[34]; [46]
  residual activity: 90%
[35]
  inhibition: 30.1%
[36]; [46]
  residual activity: 96%
[37]; [46]
  residual activity: 100%
[38]; [46]
  residual activity: 100%
[39]; [46]
  residual activity: 97%
[40]
  inhibition: 13.9%
[41]; [46]
  residual activity: 100%
[42]; [46]
  residual activity: 100%
[43]; [46]
  residual activity: 84%
[44]; [46]
  residual activity: 80%
[45]; [46]
  residual activity: 100%

## C[C@H](c1ccnc(Nc2nc3ccc(-c4cc(N(C)C)ncn4)cc3[nH]2)c1)N1CCN(C(=O)CC(F)(F)F)CC1 [BAY-985]
[1]; [47]
  residual activity: 91%
[2]; [47]
  residual activity: 100%
[3]; [47]
  residual activity: 85%
[4]; [47]
  residual activity: 100%
[5]; [47]
  residual activity: 100%
[6]; [47]
  residual activity: 96%
[7]; [47]
  residual activity: 79%
[8]; [47]
  residual activity: 100%
[9]; [47]
  residual activity: 99%
[10]; [47]
  residual activity: 100%
[11]
  inhibition: 18.7%
[12]; [47]
  residual activity: 93%
[13]; [47]
  residual activity: 100%
[14]; [47]
  residual activity: 96%
[15]
  inhibition: 8.17%
[16]; [47]
  residual activity: 100%
[17]; [47]
  residual activity: 32%
[18]; [47]
  residual activity: 100%
[19]; [47]
  residual activity: 100%
[20]
  inhibition: 23.2%
[21]; [47]
  residual activity: 100%
[22]; [47]
  residual activity: 100%
[23]
  inhibition: 11.9%
[24]; [47]
  residual activity: 100%
[25]; [47]
  residual activity: 86%
[26]; [47]
  residual activity: 100%
[27]; [47]
  residual activity: 74%
[28]; [47]
  residual activity: 100%
[29]; [47]
  residual activity: 96%
[30]; [47]
  residual activity: 100%
[31]; [47]
  residual activity: 100%
[32]; [47]
  residual activity: 100%
[33]; [47]
  residual activity: 64%
[34]; [47]
  residual activity: 90%
[35]
  inhibition: 35.5%
[36]; [47]
  residual activity: 100%
[37]; [47]
  residual activity: 100%
[38]; [47]
  residual activity: 100%
[39]; [47]
  residual activity: 96%
[40]
  inhibition: 6.47%
[41]; [47]
  residual activity: 100%
[42]; [47]
  residual activity: 78%
[43]; [47]
  residual activity: 100%
[44]; [47]
  residual activity: 93%
[45]; [47]
  residual activity: 100%
